According to patent EP0471345B1, “Determination of biogenous amines” (BOEHRINGER MANNHEIM GMBH, priority 1990, dated 1992):

What was measured:
Assay in all cases: competitive ELISA: relative affinity and cross-reactivity of monoclonal antibodies against Histamin-ITCB
[1] = tested on: monoklonaler Antikörper 1.47.74 (ECACC 90071902) gegen Histamin-ITCB; conditions: amount of Histamin-ITCB for 50 % signal drop (50 % IC) in ELISA; antibody 1.47.74
Description: (§1) Zur Ermittlung der Relativen Affinität werden Kompetitionskurven mit dem homologen Antigen ermittelt und ausgewertet.
(§2) Mikrotiterplatten werden mit 100 »l pro well einer Lösung aus 10 »g Thermo-SA-Streptavidin/ml (Herstellung nach EP-A 0269 092) in Puffer pH 9,6 eine Stunde bei Raumtemperatur beschichtet. Die Platten werden mit 0,9% Natriumchloridlösung gewaschen. […] Darauf werden 100 »l Probe in PBS eine Stunde bei Raumtemperatur inkubiert und erneut mit 0,9 % Natriumchloridlösung gewaschen. Es folgt eine weitere Inkubation (1 Stunde bei Raumtemperatur) mit 100 »l/well einer Lösung von 150 mU/ml eines Schaf-anti-Maus-IgG-Peroxidase-Konjugats (Boehringer Mannheim GmbH, Best.-Nr. 821489) in PBS/O,5 % RSA. Nach einem weiteren Waschschritt mit 0,9 % Natriumchloridlösung wird die Peroxidaseaktivität durch Zugabe von 100 »l/well einer ABTS®-Lösung (100 mg ABTS; 3,25 mmol/l Natriumperborat; 39,8 mmol/l Citronensäure; 60 mmol/l Natriumphosphat; pH 4,4-4,5) 30 min bei Raumtemperatur und anschließender Extinktionsmessung bei 405 nm bestimmt.
(§3) Die Kreuzreaktion wurde anschließend mit folgender Formel berechnet: [formula] C = Konzentration des jeweiligen Antigens, die zur Erreichung von 50 % des maximalen Signals erforderlich ist.

[2] = tested on: monoklonaler Antikörper 1.68.168 gegen Histamin-ITCB; conditions: amount of Histamin-ITCB for 50 % signal drop (50 % IC) in ELISA; antibody 1.68.168
Description: as §1, §2, §3

[3] = tested on: monoklonaler Antikörper 1.54.95 gegen Histamin-ITCB; conditions: amount of Histamin-ITCB for 50 % signal drop (50 % IC) in ELISA; antibody 1.54.95
Description: as §1, §2, §3

[4] = tested on: monoklonaler Antikörper 1.83.201 gegen Histamin-ITCB; conditions: amount of Histamin-ITCB for 50 % signal drop (50 % IC) in ELISA; antibody 1.83.201
Description: as §1, §2, §3

[5] = tested on: monoklonaler Antikörper 1.36.59 gegen Histamin-ITCB; conditions: amount of Histamin-ITCB for 50 % signal drop (50 % IC) in ELISA; antibody 1.36.59
Description: as §1, §2, §3

[6] = tested on: monoklonaler Antikörper 1.97.235 gegen Histamin-ITCB; conditions: amount of Histamin-ITCB for 50 % signal drop (50 % IC) in ELISA; antibody 1.97.235
Description: as §1, §2, §3

[7] = tested on: monoklonaler Antikörper 1.17.44 (ECACC 90071901) gegen Histamin-ITCB; conditions: amount of Histamin-ITCB for 50 % signal drop (50 % IC) in ELISA; antibody 1.17.44
Description: as §1, §2, §3

[8] = tested on: monoklonaler Antikörper 1.25.53 gegen Histamin-ITCB; conditions: amount of Histamin-ITCB for 50 % signal drop (50 % IC) in ELISA; antibody 1.25.53
Description: as §1, §2, §3

O=C(O)c1cccc(NC(=S)NCCc2c[nH]cn2)c1 [Histamin-ITCB, N-(3-Carboxyphenyl)-N'-[2-(4-imidazolyl)ethyl]thioharnstoff]
Relative Affinität zu Histamin-ITCB [1]: 0,8 ng/ml
Relative Affinität zu Histamin-ITCB [2]: 1,4 ng/ml
Relative Affinität zu Histamin-ITCB [3]: 1,5 ng/ml
Relative Affinität zu Histamin-ITCB [4]: 0,75 ng/ml
Relative Affinität zu Histamin-ITCB [5]: 1 ng/mL
Relative Affinität zu Histamin-ITCB [6]: 1,5 ng/ml
Relative Affinität zu Histamin-ITCB [7]: 0,5 ng/ml
Relative Affinität zu Histamin-ITCB [8]: 1 ng/mL
